Test results reported in publication PMC3706879, “The neurotrophic compound J147 reverses cognitive impairment in aged Alzheimer's disease mice” (Alzheimer's Research & Therapy, 2013).
“And” between values parts separate entries of the source, which are not always exact repeats. Equal values may be shown once.

Assays:
HT22 cells = conditions: 10 μM J147, one hour
Experimental: HT22 cells were plated in DMEM plus 10% FCS. The next day, the cells were treated with 10 μM J147 for 1 hr before RNA isolation.
RNA was isolated with the use of RNeasy Mini kit (Qiagen, #74104; Valencia, CA, USA) according to the manufacturer's instructions. Total RNA was quantified using the ND-1000 Nanodrop and assessed for quality using the ratios: A260/280 (range: 1.9 to 2.1) and A260/230 (range: 2.0 to 2.2, if <2.0, contamination), in addition to the Bioanalyzer (Agilent Technologies, Cedar Creek, TX, USA) if further quality assessment was required.
After RNA isolation for each sample, double stranded cDNA was synthesized from 500 ng total RNA and biotin-labeled using the GeneChip 3' IVT Express Kit (Affymetrix, Santa Clara, CA, USA, #901228-A) per the manufacturer's instructions and protocol. RNA was purified, quantified, fragmented randomly to an average size of 50 to 200 bases and hybridized to GeneChip® Mouse Genome 430 2.0 Arrays (Affymetrix,) consisting of over 45,000 probe sets representing more than 34,000 named mouse genes. The hybridization and processing of the GeneChips were conducted by Salk Institute's Functional Genomics Core Facility using the following systems from Affymetrix (Santa Clara, CA, USA): GeneChip® Hybridization Oven 640, GeneChip® Fluidics Station 450 to the wash and stain operation of Affymetrix GeneChip® arrays, and the GeneChip® Scanner 3000 7G.
Affymetrix Expression Console Software (version 1.0) was used to perform quality assessment of the microarray scan/experiments. Array data were normalized via scaling to adjust the average intensity of each array to be similar. GeneChips were analyzed by the GeneChip Operating Software (Affymetrix) with the default settings except that the target signal was set to 200 for GeneChip quality control. Raw data were analyzed through the gcRMA-algorithm using the Affymetrix package in R software for statistical computing and graphics. The median microarray intensity for all microarrays was normalized to 100, and probe sets with median intensities >100 were scored. Fold changes were calculated in Microsoft Excel Microsoft, Redmond, Washington, USA). Genes of interest and genes with the highest fold-changes were validated using Real-Time Quantitative PCR. The data discussed in this publication have been deposited in NCBI's Gene Expression Omnibus and are accessible through GEO Series accession number GSE45534 [26].

PC12 cells = experiment: neurite outgrowth of PC12 cells with HT22 growth conditioned medium; type: cell-based
Experimental: The HT22 cell line was used to make growth conditioned medium. HT22 is a nerve cell line derived from mouse brain and is widely used to study nerve cell physiology. To make HT22 growth conditioned medium, cells were grown in DMEM with 10% fetal calf serum. Then, semiconfluent cultures were washed three times with serum-free DMEM and cultured overnight in a reduced volume of DMEM in the presence or absence of 100 nM J147. The following day, the growth conditioned medium was collected and centrifuged at 10,000 × g to remove detached cells. To determine the effect of the conditioned medium on NGF-induced neurite outgrowth, PC12 cells were dissociated and plated on polyornithine-coated tissue culture dishes in the following conditions: 1) HT22 conditioned medium, 2) J147 treated HT22 conditioned medium, 3) DMEM alone plus J147, 4) DMEM plus NGF at 50 nanograms per ml, 5) J147 treated HT22 conditioned medium pre-incubated for one hour with 10 μg/ml anti-NGF and N2 supplement (Invitrogen). N2 supplement, which contains transferrin, was used in the presence of antibody to minimize the possibility that antibody protein non-specifically modified cell-substrate from adhesion and therefore neurite outgrowth. Phase contrast photographs were taken 24 hrs later.

C57BL/6J mice = experiment: fear conditioning, scopolamine induced memory impairment; type: in vivo; conditions: scopolamine 1 mg/kg i.p.; J147 200 ppm, donepezil 20 ppm in food; vs scopolamine
Experimental: A total of 60 male mice aged eight weeks were housed 4 per cage and were divided into five groups with 12 mice per group. Treatments were administered in the food (TestDiet® 5015, Richmond, IN, USA) for a period of two weeks before commencement of behavioral testing. […] Following two weeks of treatment, memory impairment was induced by intraperitoneal (i.p.) injection of scopolamine (1 mg/kg) 30 minutes prior to each of the following behavioral tests: Y-maze, probe trial of the water maze and contextual and cued fear conditioning. Mice were allowed to rest for two days between each behavior test. All mice received scopolamine except for one of the control groups, which received saline as a control. Mice were sacrificed 24 hours after the last behavioral test for tissue harvesting.
Fear conditioning to either a cue or a context represents a form of associative learning. The read-out that is measured in contextual and cued fear conditioning is a freezing response that occurs following the pairing of an unconditioned stimulus (US), such as a foot shock, with a conditioned stimulus (CS), such as a particular context or cue (tone). The mouse will freeze if it remembers and associates that environment with the aversive stimulus. The hippocampus and the amygdala are required for fear memory where the hippocampus is involved in the formation and retrieval of context fear associations and the amygdala is involved in conditioning and recall of associations to contextual and discrete cues. This assay used fear conditioning chambers from Med Associates Inc. with Video Freeze Software (Med Associates Inc, St. Albans, VT, USA). On Day 1, mice were trained by allowing them to explore the chamber for 120 sec, mice were then presented with a 30-sec tone (2 kHz with 85 dB intensity) immediately followed by a 2-sec foot shock (0.7 mA). The tone-shock pairing was repeated following a 30-sec interval and the mice were again allowed to explore for 120 sec before removing them from the chamber. On Day 2, contextual memory, which requires a functioning hippocampus, was tested by placing the mice in the chambers and allowing them to explore for the same length of time as the previous day but without the tone and the shock. On Day 3, cued or emotional memory was tested, which relies on both hippocampus and amygdala. […] On Day 2, the time spent freezing is measured over the entire time in the chamber. […] The percentage of time spent freezing by each mouse is averaged per group and then groups can be compared and P-values calculated to determine statistical significance. On Day 3, the percentage of time spent freezing during the two tones is averaged per group, and then groups can be compared and P-values calculated to determine statistical significance. […]

COc1cccc(/C=N/N(C(=O)C(F)(F)F)c2ccc(C)cc2C)c1 [J147, (E)-N-(2,4-dimethylphenyl)-2,2,2-trifluoro-N'-(3methoxybenzyli-dene) acetohydrazide]
Fold change: J147 (1 hr) vs Control, Egr1 mRNA (HT22 cells): 2.5 fold | Fold change: J147 (1 hr) vs Control, Egr3 mRNA (HT22 cells): 8 fold and 8.0 fold | Fold change: J147 (1 hr) vs Control, Ngf mRNA (HT22 cells): 2.8 fold | Fold change: J147 (1 hr) vs Control, No title (chr8:13161324 to 13161817) (HT22 cells): 2.6 fold | Fold change: J147 (1 hr) vs Control, Spred2 mRNA (HT22 cells): 2.7 fold | neurite outgrowth, fresh DMEM plus J147 (PC12 cells; 100 nM J147 in fresh DMEM): did not | neurite outgrowth, conditioned medium from J147 treated HT22 cells (PC12 cells; HT22 cells incubated overnight with 100 nM J147, 24 hrs): promoted neurite outgrowth | contextual memory (freezing Day 2) (C57BL/6J mice): it was not significant | cued memory (freezing in response to the tone, Day 3) (C57BL/6J mice): neither effect was significant
